Data from patent US20110217202A1, “ACTIVE OXYGEN DISINFECTION SYSTEM AND USE THEREOF” (priority 2010, published 2011).

Columns and labels:
S. marcescens = assay: Photosensitizer with or without H2O2 or PHMB, rate of kill, S. marcescens; format: cell-based
Procedure: All solutions (testing and control) are then incubated for about 5 minutes at 37° C. in the dark in an orbital incubator prior to exposure to the relevant light conditions. […]
(§1) After incubation overnight, the colony forming units at the dilution where they can best be counted are quantified and number of colony forming units per mL calculated.
In all instances the bacterial challenge is at least 5×10^5 cfu/mL. SoftWear Saline (providing 0.003% H2O2), photosensitizer solutions are made up at double the concentration to be tested using the SoftWear Saline as the diluent. 2.5 mLs of this solution is then mixed with 2.5 mLs of bacteria to form the test solutions.
In all instances the bacterial challenge is at least 5×10^5 cfu/mL. Solutions containing the photosensitizers and PHMB are made up separately at quadruple the concentration to be tested.

P. aeruginosa = assay: Photosensitizer rate of kill under light exposure, P. aeruginosa; format: cell-based
Procedure: P. aeruginosa is grown in nutrient broth for about 18 hours to bring the bacteria into the logarithmic growth phase prior to being spun down via centrifugation and the pellet resuspended in sterile phosphate buffered saline (PBS). The bacterial suspension is then diluted to obtain an OD of 0.9 at 540 nm. This stock bacterial solution is subsequently diluted 1 in 500 to obtain a test solution containing about 10^5-10^6 cfu/ml.
A solution of one of the five photosensitizers is made at double the concentration to be tested.
A testing solution (lens care solution) is prepared by adding 5 mL of a photosensitizer solution to 5 mL of the bacterial solution.
Two control solutions are prepared by adding 5 mL of sterile PBS to 5 mL of the bacterial solution. One of the two control solutions is kept in the dark (i.e., Control Dark) and the other one is exposed to the same light conditions as the photosensitizer test solutions (i.e., Control Light).
All solutions (testing and control) are then incubated for about 5 minutes at 37° C. in the dark in an orbital incubator prior to exposure to the relevant light conditions. The light source used provides broad spectrum visible light and the temperature is controlled using a fan.
as §1
All solutions are then incubated for about 5 minutes at 37° C. in the dark in an orbital incubator prior to exposure to the relevant light conditions.
Two light sources are used to assess antibacterial activity of the range of photosensitizers. One is a broad spectrum light source which emits light across visible spectrum. […] The other light source used is a red LED, which emits light of a single wavelength at 630 nm.
The red LED light source emits with a power of 27 mW/cm2. In both instances, the power is measured using an ILT-1400 A Radiometer/Photometer.
as §1

C. albicans = assay: Photosensitizer with PHMB, rate of kill, C. albicans; format: cell-based; settings: 10 μg/mL with 0.00005% PHMB; LED 630 nm; one hour; about 10^7 cfu/ml
Procedure: All materials used and the method used to determine the rate of bacterial kill are described in Example 1 as was the method. In all instances the bacterial challenge is at least 5×10^5 cfu/mL. Solutions containing the photosensitizers and PHMB are made up separately at quadruple the concentration to be tested. 1.25 mLs of each solution is then added to 2.5 mLs of bacteria suspension to render the correct concentration to be tested.
Where a testing solution contains 10 μg/mL TMPyP and 0.00005% PHMB, a 5 Log reduction in bacterial viability against about 10^7 cfu/ml C. albicans is observed after one hour of light exposure to a LED (630 nm).

[1] = dissociation constant of the dibasic compound; cited from earlier work
[2] = 5 μg/mL, red light/LED 630 nm, one hour, about 10^5 cfu/ml
[3] = 10 μg/mL, broad spectrum light source, about 45 minutes, about 10^5 cfu/ml

## CN(C)c1ccc2nc3ccc(=[N+](C)C)cc-3sc2c1 [MB, Methylene Blue]
S. marcescens; 20 μg/mL, free of H2O2, red LED 630 nm, one hour, about 10^5 cfu/ml
  Log reduction in bacterial viability: no reduction in bacterial viability

## O=C1OC2(c3cc(I)c(O)c(I)c3Oc3c2cc(I)c(O)c3I)c2c(Cl)c(Cl)c(Cl)c(Cl)c21 [RB, Rose Bengal]
P. aeruginosa; about 250 μg/mL, broad spectrum visible light, 30 minutes, about 10^5 cfu/ml
  Log reduction in bacterial viability: 5-6 Log
S. marcescens; 10 μg/mL with 0.00005% PHMB, LED 630 nm, 15 minutes, about 10^5 cfu/ml
  Log reduction in bacterial viability: 2 Log
S. marcescens; 10 μg/mL with 0.00005% PHMB, LED 630 nm, additional light exposure up to one hour
  further reduction in bacterial viability on additional light exposure: does not reduce bacterial viability
S. marcescens; 10 μg/mL with 0.003% H2O2, LED 630 nm, about 10^5 cfu/ml
  Log reduction in bacterial viability: no reduction in bacterial viability
S. marcescens; 10 μg/mL, free of H2O2 or PHMB, LED 630 nm, about 10^5 cfu/ml
  Log reduction in bacterial viability: no reduction in bacterial viability

## Cc1cc2nc3ccc(N(C)C)cc3[s+]c2cc1N.[Cl-] [TBO, Toluidine Blue O]
P. aeruginosa; 5 μg/mL, broad spectrum light source, about 30 minutes, about 10^5 cfu/ml
  Log reduction in bacterial viability: 5-6 Log
P. aeruginosa; [2]
  Log reduction in bacterial viability: 5-6 Log
P. aeruginosa; [3]
  Log reduction in bacterial viability: 5-6 Log
P. aeruginosa; 50 μg/mL, broad spectrum light source, between 30 to 45 minutes, about 10^5 cfu/ml
  Log reduction in bacterial viability: 3 Log
P. aeruginosa; 250 μg/mL, broad spectrum visible light, time not stated, about 10^5 cfu/ml
  reduction in bacterial viability: no reduction in bacterial viability
P. aeruginosa; 375 μg/mL, broad spectrum visible light, 30 minutes light exposure, about 10^5 cfu/ml
  Rate of kill (Log reduction in bacterial viability): 5-6 Log
P. aeruginosa; 375 μg/mL, broad spectrum visible light, time for the stated rate of kill
  Time of Light Exposure: 30 min
P. aeruginosa; 500 μg/mL, broad spectrum visible light, 15 minutes light exposure, about 10^5 cfu/ml
  Rate of kill (Log reduction in bacterial viability): 5-6 Log
P. aeruginosa; 500 μg/mL, broad spectrum visible light, time for the stated rate of kill (Table 2)
  Time of Light Exposure: 15 min
S. marcescens; 0.625 μg/mL with 0.00005% PHMB, LED 630 nm, about 15 minutes, about 10^5 cfu/ml
  Log reduction in bacterial viability: 3 Log
S. marcescens; 0.625 μg/mL with 0.00005% PHMB, LED 630 nm, about 30 minutes, about 10^5 cfu/ml
  Log reduction in bacterial viability: 5-6 Log
S. marcescens; 1.25 μg/mL with 0.00005% PHMB, red LED 630 nm, about 15 minutes, about 10^5 cfu/ml
  Log reduction in bacterial viability: 3 Log
S. marcescens; 1.25 μg/mL with 0.00005% PHMB, red LED 630 nm, about 45 minutes, about 10^5 cfu/ml
  Log reduction in bacterial viability: 5-6 Log
S. marcescens; 2.5 μg/mL with 0.00005% PHMB, red LED 630 nm, about 30 minutes, about 10^5 cfu/ml
  Log reduction in bacterial viability: 5-6 Log
S. marcescens; 2.5 μg/mL with 0.0005% PHMB, red LED 630 nm, about 15 minutes, about 10^5 cfu/ml
  Log reduction in bacterial viability: 5-6 Log
S. marcescens; 2.5 μg/mL with 0.003% H2O2, red LED 630 nm, 30 minutes, about 10^5 cfu/ml
  Log reduction in bacterial viability: 5-6 Log
S. marcescens; 5 μg/mL only, free of H2O2, red LED 630 nm, 45 minutes
  Log reduction in bacterial viability: 5-6 Log

## C[n+]1ccc(-c2c3nc(c(-c4cc[n+](C)cc4)c4ccc([nH]4)c(-c4cc[n+](C)cc4)c4nc(c(-c5cc[n+](C)cc5)c5ccc2[nH]5)C=C4)C=C3)cc1.Cc1ccc(S(=O)(=O)[O-])cc1.Cc1ccc(S(=O)(=O)[O-])cc1.Cc1ccc(S(=O)(=O)[O-])cc1.Cc1ccc(S(=O)(=O)[O-])cc1 [TMPyP, tetra(N-methyl-4-pyridyl)porphine tetratosylate]
P. aeruginosa; 5 μg/mL, broad spectrum light source, one hour, about 10^5 cfu/ml
  Log reduction in bacterial viability: 2 Log
P. aeruginosa; 5 μg/mL, broad spectrum light source, two hours, about 10^5 cfu/ml
  Log reduction in bacterial viability: 5-6 Log
P. aeruginosa; [2]
  Log reduction in bacterial viability: 2 Log
P. aeruginosa; [3]
  Log reduction in bacterial viability: 5-6 Log
P. aeruginosa; 10 μg/mL, red LED 630 nm, about 45 minutes, about 10^5 cfu/ml
  Log reduction in bacterial viability: 5-6 Log
P. aeruginosa; 50 μg/mL, broad spectrum visible light, 45 minutes light exposure, about 10^5 cfu/ml
  Rate of kill (Log reduction in bacterial viability): 5-6 Log
P. aeruginosa; 50 μg/mL, broad spectrum visible light, time for the stated rate of kill
  Time of Light Exposure: 45 min
P. aeruginosa; 250 μg/mL, broad spectrum visible light, 45 minutes light exposure, about 10^5 cfu/ml
  Rate of kill (Log reduction in bacterial viability): 5-6 Log
P. aeruginosa; 250 μg/mL, broad spectrum visible light, time for the stated rate of kill
  Time of Light Exposure: 45 min
P. aeruginosa; 500 μg/mL, broad spectrum visible light, 30 minutes light exposure, about 10^5 cfu/ml
  Rate of kill (Log reduction in bacterial viability): 5-6 Log
P. aeruginosa; 500 μg/mL, broad spectrum visible light, time for the stated rate of kill (Table 1)
  Time of Light Exposure: 30 min
S. marcescens; 10 μg/mL with 0.00005% PHMB, red LED 630 nm, about 45 minutes, about 10^5 cfu/ml
  Log reduction in bacterial viability: 3 Log
S. marcescens; 10 μg/mL with 0.0005% PHMB, red LED 630 nm, about 15 minutes, about 10^5 cfu/ml
  Log reduction in bacterial viability: 5-6 Log
S. marcescens; 10 μg/mL with 0.003% H2O2, red LED 630 nm, one hour, about 10^5 cfu/ml
  Log reduction in bacterial viability: about 3 Log
C. albicans
  Log reduction in bacterial viability: 5 Log

## Cl.Cl.O=S(=O)(O)c1ccc(-c2c3nc(c(-c4ccc(S(=O)(=O)O)cc4)c4ccc([nH]4)c(-c4ccc(S(=O)(=O)O)cc4)c4nc(c(-c5ccc(S(=O)(=O)O)cc5)c5ccc2[nH]5)C=C4)C=C3)cc1 [TSPP, meso-tetra(4-sulfonatophenyl)porphine dihydrochloride]
P. aeruginosa; about 1 mg/mL, broad spectrum visible light, about 10^5 cfu/ml
  biocidal activity: no significant biocidal activity

## OCC(CO)(CO)NCCCNC(CO)(CO)CO [bis-TRIS-propane, 1,3-bis(tris[hydroxymethyl]methylamino)propane]
[1]
  pKa1: 6.8
  pKa2: 9.5

## polyhexamethylene biguanide [PHMB]
S. marcescens; 0.00005% PHMB without any sensitizer, one hour, about 10^5 cfu/ml
  Log reduction in bacterial viability: 1 Log
